The target in data set [1] is Voltage-gated inwardly rectifying potassium channel KCNH2 (Homo sapiens, UniProt Q12809). Kind of data set: Inhibition of human ERG.
The nature of data set [2]: Half life in Wistar-Han rat at 0.5 mg/kg, iv or 1 mg/kg, po. The class given is ADME, organism-based. The note with it: in vivo.
A short description of data set [3]: Intrinsic clearance in Beagle dog at 0.5 mg/kg, iv or 1 mg/kg, po. The class given is ADME, organism-based, Canis lupus familiaris. The note with it: in vivo.
Data set [4] can be described thus: Volume of distribution in Beagle dog at 0.5 mg/kg, iv or 1 mg/kg, po. The note with it: in vivo. The data set is classed as ADME, organism-based, Canis lupus familiaris.
Data set [5] has as its target Cytochrome P450 2C9 (Homo sapiens, UniProt P11712). Kind of data set: Inhibition of CYP2C9 (unknown origin). The data set is classed as ADME.
Data set [6] in a line: Volume of distribution in Wistar-Han rat at 0.5 mg/kg, iv or 1 mg/kg, po. The class given is ADME, organism-based. The following applies: in vivo.
Data set [7] concerns the target Cytochrome P450 2D6 (Homo sapiens, UniProt P10635). Kind of data set: Inhibition of CYP2D6 (unknown origin). The class given is ADME.
Data set [8] addresses Sodium channel protein type 5 subunit alpha (Homo sapiens, UniProt Q14524). Kind of data set: Inhibition of Nav1.5 (unknown origin).
Data set [9] can be described thus: Oral bioavailability in Wistar-Han rat at 1 mg/kg. The class given is ADME, organism-based. The note with it: in vivo.
Data set [10] is described as follows: Solubility of the compound at pH 7. The data set is classed as physicochemical. The note with it: buffer.
Data set [11] is described as follows: cells. The following applies: Homo sapiens, HeLa.
Data set [12] can be described thus: Intrinsic clearance in Wistar-Han rat at 0.5 mg/kg, iv or 1 mg/kg, po. The data set is classed as ADME, organism-based. The note with it: in vivo.
Data set [13] in a line: Apparent permeability in pig LLC-PK1 cells. The data set is classed as ADME, cell-based, Sus scrofa.
Data set [14] can be described thus: AUC in rat at 200 mg/kg. The data set is classed as ADME, organism-based. On the set-up: dose 200 mg/kg. The following applies: in vivo.
The nature of data set [15]: Unbound volume of distribution in Wistar-Han rat at 0.5 mg/kg, iv or 1 mg/kg, po. The data set is classed as ADME, organism-based. The following applies: in vivo.
In data set [16] the target is Cytochrome P450 3A4 (Homo sapiens, UniProt P08684). The data set is described as follows: Inhibition of CYP3A4 (unknown origin). The class given is ADME.
A short description of data set [17]: Oral bioavailability in Beagle dog at 1 mg/kg. The data set is classed as ADME, organism-based, Canis lupus familiaris. The note with it: in vivo.
In data set [18] the target is T1, Cytochrome P450 2C8 (Homo sapiens, UniProt P10632).
T1 sequence (P10632 whole entry): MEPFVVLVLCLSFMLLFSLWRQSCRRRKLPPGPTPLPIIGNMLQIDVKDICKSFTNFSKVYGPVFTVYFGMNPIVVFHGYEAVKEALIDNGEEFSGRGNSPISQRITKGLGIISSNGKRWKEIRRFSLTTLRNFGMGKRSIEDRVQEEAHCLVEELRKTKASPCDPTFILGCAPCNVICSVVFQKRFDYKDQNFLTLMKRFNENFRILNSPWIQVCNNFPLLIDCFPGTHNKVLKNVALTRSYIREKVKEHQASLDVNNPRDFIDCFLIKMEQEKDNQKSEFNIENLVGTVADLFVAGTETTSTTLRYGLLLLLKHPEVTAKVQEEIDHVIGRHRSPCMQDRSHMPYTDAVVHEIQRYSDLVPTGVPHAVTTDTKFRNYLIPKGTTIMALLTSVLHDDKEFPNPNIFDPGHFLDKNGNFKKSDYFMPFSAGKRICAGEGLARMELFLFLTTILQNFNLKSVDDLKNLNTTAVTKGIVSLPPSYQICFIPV
The data set is described as follows: Inhibition of CYP2C8 (unknown origin). The class given is ADME.

Data set [19] concerns the target Voltage-dependent L-type calcium channel subunit alpha-1C (Homo sapiens, UniProt Q13936). Kind of data set: Inhibition of Cav1.2 (unknown origin).
Data set [20] in a line: Clearance in Wistar-Han rat at 0.5 mg/kg, iv or 1 mg/kg, po. The data set is classed as ADME, organism-based. The following applies: in vivo.
Data set [21] can be described thus: Unbound volume of distribution in Beagle dog at 0.5 mg/kg, iv or 1 mg/kg, po. The class given is ADME, organism-based, Canis lupus familiaris. The following applies: in vivo.
Data set [22] is described as follows: Clearance in Beagle dog at 0.5 mg/kg, iv or 1 mg/kg, po. The following applies: in vivo. The data set is classed as ADME, organism-based, Canis lupus familiaris.
Data set [23] is described as follows: Half life in Beagle dog at 0.5 mg/kg, iv or 1 mg/kg, po. The class given is ADME, organism-based, Canis lupus familiaris. The following applies: in vivo.

Each structure is given as a SMILES string. In brackets after ≈: the same amount, converted by molar mass.

Sequence of Voltage-dependent L-type calcium channel subunit alpha-1C (Q13936 whole entry): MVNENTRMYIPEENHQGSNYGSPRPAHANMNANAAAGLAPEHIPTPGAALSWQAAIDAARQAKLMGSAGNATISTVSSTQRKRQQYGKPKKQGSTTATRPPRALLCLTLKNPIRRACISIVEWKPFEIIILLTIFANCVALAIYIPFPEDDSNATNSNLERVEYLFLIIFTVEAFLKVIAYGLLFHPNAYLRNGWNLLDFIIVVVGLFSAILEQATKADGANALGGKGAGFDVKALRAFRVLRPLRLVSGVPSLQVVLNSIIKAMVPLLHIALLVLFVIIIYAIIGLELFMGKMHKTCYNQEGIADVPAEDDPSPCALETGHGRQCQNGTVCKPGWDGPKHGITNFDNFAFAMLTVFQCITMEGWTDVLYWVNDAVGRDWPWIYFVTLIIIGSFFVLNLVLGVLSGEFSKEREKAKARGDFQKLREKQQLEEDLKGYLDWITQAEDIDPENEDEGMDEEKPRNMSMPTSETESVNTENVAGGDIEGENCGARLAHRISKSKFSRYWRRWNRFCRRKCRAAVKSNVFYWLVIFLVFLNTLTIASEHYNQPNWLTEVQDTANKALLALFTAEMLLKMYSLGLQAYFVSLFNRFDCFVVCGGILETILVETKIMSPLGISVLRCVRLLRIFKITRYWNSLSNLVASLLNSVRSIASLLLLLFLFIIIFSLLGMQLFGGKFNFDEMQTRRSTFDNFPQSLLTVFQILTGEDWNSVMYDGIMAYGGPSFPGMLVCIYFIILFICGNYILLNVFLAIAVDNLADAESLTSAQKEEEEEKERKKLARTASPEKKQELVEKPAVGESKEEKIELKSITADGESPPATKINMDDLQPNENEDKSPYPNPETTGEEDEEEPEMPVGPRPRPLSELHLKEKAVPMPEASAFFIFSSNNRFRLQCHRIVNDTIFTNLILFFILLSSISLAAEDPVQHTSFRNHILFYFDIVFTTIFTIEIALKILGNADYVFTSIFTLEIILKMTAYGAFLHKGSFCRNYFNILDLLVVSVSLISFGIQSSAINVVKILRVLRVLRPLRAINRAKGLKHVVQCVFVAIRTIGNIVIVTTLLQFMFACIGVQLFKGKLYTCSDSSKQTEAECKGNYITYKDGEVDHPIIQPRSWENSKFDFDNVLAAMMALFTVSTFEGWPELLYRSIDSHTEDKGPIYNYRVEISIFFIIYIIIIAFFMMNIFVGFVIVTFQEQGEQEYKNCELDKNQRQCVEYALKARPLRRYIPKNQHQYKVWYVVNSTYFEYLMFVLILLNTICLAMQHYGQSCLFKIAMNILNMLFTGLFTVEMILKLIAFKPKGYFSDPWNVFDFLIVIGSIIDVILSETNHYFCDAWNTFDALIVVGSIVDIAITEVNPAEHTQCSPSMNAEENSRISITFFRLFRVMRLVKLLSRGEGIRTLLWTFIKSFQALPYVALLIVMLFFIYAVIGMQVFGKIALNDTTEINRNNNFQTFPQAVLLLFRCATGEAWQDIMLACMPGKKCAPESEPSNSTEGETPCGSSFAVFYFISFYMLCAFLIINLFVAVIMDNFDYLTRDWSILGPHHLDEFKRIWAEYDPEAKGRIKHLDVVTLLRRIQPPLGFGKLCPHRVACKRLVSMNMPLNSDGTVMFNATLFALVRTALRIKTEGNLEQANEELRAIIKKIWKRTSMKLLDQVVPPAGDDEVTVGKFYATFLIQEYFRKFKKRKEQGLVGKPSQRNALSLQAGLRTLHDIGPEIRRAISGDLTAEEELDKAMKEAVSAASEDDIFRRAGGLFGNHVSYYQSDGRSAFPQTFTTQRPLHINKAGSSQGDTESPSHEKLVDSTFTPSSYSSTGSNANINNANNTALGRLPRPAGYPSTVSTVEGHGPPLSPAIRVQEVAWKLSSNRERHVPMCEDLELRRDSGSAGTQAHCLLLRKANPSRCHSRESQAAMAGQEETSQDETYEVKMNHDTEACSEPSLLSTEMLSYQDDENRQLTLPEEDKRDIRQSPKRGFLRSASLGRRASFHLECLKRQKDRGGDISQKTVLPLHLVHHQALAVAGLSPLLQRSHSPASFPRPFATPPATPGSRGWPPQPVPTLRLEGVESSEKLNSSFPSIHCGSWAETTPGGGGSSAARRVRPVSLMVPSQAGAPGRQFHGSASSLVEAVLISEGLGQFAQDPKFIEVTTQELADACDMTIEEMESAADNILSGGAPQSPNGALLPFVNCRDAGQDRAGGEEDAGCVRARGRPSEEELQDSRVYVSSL
Sequence of Cytochrome P450 2D6 (P10635 whole entry): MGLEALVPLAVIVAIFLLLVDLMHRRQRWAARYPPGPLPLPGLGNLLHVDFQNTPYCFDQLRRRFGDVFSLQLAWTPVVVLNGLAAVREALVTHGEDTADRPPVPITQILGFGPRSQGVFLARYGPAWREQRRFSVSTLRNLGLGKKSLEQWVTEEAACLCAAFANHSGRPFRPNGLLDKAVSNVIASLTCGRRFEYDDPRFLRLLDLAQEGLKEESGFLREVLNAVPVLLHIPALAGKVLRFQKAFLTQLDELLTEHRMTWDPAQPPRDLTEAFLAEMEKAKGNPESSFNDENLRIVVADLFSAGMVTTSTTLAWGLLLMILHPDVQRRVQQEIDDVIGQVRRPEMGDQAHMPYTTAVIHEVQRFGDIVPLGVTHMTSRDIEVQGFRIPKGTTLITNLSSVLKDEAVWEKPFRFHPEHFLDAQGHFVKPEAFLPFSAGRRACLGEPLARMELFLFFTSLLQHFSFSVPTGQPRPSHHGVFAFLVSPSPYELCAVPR
Sequence of Sodium channel protein type 5 subunit alpha (Q14524 whole entry): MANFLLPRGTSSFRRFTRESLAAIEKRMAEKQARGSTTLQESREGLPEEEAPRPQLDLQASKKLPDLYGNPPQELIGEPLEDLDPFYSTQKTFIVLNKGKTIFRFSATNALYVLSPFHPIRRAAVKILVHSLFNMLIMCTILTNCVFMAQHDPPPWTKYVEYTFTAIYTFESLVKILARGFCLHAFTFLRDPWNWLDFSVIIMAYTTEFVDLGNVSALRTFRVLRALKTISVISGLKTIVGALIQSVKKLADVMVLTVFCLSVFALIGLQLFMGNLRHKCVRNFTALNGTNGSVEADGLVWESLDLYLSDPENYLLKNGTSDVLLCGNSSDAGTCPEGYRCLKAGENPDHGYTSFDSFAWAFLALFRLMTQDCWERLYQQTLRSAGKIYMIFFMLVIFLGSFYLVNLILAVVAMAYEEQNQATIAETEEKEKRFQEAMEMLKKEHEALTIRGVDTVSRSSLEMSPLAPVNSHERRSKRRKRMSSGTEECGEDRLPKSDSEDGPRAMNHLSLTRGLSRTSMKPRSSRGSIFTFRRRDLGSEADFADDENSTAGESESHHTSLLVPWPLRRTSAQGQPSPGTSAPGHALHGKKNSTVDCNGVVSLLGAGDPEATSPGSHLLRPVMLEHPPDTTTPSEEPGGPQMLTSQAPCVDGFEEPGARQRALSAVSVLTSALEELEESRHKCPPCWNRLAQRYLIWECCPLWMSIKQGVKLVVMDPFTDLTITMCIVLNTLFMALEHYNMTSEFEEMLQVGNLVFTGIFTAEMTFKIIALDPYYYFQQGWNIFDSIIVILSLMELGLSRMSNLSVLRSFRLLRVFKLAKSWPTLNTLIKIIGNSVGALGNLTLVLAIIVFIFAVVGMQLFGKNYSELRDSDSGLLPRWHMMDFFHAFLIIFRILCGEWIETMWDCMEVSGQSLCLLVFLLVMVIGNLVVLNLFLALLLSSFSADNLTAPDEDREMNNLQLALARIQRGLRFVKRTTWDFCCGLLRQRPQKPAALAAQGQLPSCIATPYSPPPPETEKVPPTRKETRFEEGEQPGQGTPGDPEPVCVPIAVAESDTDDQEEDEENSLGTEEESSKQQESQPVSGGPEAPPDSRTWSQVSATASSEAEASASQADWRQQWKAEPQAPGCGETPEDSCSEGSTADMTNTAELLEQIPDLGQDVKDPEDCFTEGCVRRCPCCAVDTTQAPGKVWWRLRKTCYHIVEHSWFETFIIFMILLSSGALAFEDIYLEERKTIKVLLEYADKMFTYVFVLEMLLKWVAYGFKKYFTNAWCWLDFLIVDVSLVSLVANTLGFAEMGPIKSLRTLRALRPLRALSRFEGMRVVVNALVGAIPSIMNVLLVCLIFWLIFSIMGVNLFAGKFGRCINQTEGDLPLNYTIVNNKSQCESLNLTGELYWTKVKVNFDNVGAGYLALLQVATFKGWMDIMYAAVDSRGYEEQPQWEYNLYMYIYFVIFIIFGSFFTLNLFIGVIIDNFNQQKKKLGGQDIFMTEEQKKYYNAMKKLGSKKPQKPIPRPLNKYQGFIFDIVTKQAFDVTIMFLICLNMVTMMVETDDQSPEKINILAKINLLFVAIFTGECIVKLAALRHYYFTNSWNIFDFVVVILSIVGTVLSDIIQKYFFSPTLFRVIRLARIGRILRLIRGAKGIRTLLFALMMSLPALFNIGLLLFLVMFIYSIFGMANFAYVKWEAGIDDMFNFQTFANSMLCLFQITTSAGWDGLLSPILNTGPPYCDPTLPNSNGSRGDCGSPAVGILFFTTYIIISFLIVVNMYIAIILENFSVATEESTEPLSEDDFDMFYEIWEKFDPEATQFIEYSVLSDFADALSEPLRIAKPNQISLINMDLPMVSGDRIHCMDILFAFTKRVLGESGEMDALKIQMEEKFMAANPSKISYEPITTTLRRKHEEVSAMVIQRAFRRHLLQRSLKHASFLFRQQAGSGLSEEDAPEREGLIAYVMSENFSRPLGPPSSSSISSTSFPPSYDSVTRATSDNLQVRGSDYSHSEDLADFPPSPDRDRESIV

For the compound `Cc1ncc(-c2nc3c(-c4ccc5c(c4)[C@@]4(CCCN4C(=O)C4CC4)C(=O)N5C)ncnc3n2C)cn1`, the IC50 (in general, the concentration at which inhibition is half-maximal) in [1] was greater than 30 µM; in data set [5], greater than 50 µM; in data set [7], greater than 50 µM; in [8], greater than 30 µM; in [11] it was 9.1 µM; in data set [16], greater than 50 µM. In addition, the concentration for half-maximal inhibition (IC50) in data set [18] is greater than 50 µM; in [19] it was greater than 30 µM. Further, the values for the half-life in [2] and in data set [23] were 1.4 h and 2 h, respectively. In addition, the values for the CL in [3] and in data set [12] were 14 mL/min/kg and 130 mL/min/kg, respectively. Further, the Vd in [4] was 0.8 L/kg; in data set [6], 1.4 L/kg. For the same compound, the bioavailability – broadly, dose-corrected exposure relative to a reference, in per cent – in data set [9] came out at 100%; in data set [17], 82%. In data set [10], the solubility (commonly the concentration that dissolves in the medium under given conditions) came out at 140 µM (≈ 69.2 µg/mL). Further, the apparent permeability coefficient (Papp) (usually a coefficient for how fast a substance crosses the barrier) in data set [13] stood at 31 ×10⁻⁶ cm/s. The area under the curve (AUC) – broadly, concentration integrated over time – in data set [14] turned out to be 490 µM·h. In addition, the Vdu was 6.1 L/kg in data set [15] and 1.5 L/kg in [21]. In addition, the clearance was 22 mL/min/kg in [20] and 6.1 mL/min/kg in data set [22].

The values above are taken from ChEMBL document CHEMBL4665917, “Optimization of Versatile Oxindoles as Selective PI3Kδ Inhibitors” (ACS Med Chem Lett, 2020).
